Assay results reported in ChEMBL document CHEMBL4184249, “Structural development of tetrachlorophthalimides as liver X receptor β (LXRβ)-selective agonists with improved aqueous solubility” (Bioorg Med Chem Lett, 2018).
Values after ≈ are worked out from the molar mass of the structure shown. Active and inactive are the calls of the source. The rule behind the calls is not given here.

How the values were obtained:
[1] = molecular target: T1, Oxysterols receptor LXR-alpha (Homo sapiens) (UniProt Q13133); assay: Agonist activity at human LXRalpha expressed in HEK293 cells co-expressing CMX-beta-galactosidase at 30 uM incubated for 16 hrs by luciferase reporter gene assay; type: cell-based
T1 sequence (whole entry): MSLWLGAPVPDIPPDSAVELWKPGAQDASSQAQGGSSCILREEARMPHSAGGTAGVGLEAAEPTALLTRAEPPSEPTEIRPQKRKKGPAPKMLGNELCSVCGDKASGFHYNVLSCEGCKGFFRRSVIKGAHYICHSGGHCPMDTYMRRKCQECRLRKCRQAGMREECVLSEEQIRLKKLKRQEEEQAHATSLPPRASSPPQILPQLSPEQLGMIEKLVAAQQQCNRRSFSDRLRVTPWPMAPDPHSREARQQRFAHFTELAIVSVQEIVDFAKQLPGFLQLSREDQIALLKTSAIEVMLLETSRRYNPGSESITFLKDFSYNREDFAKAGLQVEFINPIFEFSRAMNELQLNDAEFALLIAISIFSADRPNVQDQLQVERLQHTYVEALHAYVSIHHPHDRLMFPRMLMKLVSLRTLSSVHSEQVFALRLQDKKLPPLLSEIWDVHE

[2] = molecular target: T2, Oxysterols receptor LXR-beta (Homo sapiens, UniProt P55055); assay: Agonist activity at human LXRbeta expressed in HEK293 cells co-expressing CMX-beta-galactosidase incubated for 16 hrs by luciferase reporter gene assay; type: cell-based
T2 sequence (P55055 whole entry): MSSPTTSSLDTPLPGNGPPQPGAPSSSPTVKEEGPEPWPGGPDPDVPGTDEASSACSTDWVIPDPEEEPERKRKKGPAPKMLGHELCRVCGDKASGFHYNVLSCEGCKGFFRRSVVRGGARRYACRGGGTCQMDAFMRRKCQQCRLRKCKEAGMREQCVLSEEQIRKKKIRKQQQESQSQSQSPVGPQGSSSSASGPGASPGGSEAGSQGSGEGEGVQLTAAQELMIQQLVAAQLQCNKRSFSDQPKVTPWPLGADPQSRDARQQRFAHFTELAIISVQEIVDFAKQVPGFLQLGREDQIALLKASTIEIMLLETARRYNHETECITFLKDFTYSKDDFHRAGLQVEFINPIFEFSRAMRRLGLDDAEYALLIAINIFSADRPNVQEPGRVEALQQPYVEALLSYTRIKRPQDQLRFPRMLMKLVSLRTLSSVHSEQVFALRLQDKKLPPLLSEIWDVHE

[3] = molecular target: T3, Oxysterols receptor LXR-beta (Homo sapiens) (UniProt P55055); assay: Agonist activity at human LXRbeta expressed in HEK293 cells co-expressing CMX-beta-galactosidase incubated for 16 hrs by luciferase reporter gene assay relative to T0901317; type: cell-based
T3 sequence (whole entry): T2 sequence (P55055 whole entry)

[4] = molecular target: T4, Oxysterols receptor LXR-alpha (Mus musculus) (UniProt Q9Z0Y9); assay: Agonist activity at mouse LXRalpha expressed in HEK293 cells co-expressing CMX-beta-galactosidase at 30 uM incubated for 16 hrs by luciferase reporter gene assay; type: cell-based
T4 sequence (whole entry): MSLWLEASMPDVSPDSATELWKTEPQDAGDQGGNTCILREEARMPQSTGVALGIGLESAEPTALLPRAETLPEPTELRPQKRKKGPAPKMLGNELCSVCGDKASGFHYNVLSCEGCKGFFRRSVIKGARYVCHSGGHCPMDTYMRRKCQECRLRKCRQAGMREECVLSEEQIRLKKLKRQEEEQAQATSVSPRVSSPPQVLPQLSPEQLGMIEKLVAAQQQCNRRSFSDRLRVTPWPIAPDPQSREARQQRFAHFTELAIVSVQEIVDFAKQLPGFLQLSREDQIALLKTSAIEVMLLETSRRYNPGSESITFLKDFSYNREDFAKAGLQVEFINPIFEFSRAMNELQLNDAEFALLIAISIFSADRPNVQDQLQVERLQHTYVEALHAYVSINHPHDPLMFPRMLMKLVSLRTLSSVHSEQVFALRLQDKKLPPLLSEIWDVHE

[5] = molecular target: T5, Oxysterols receptor LXR-beta (Mus musculus, UniProt Q60644); assay: Agonist activity at mouse LXRbeta expressed in HEK293 cells co-expressing CMX-beta-galactosidase incubated for 16 hrs by luciferase reporter gene assay; type: cell-based
T5 sequence (Q60644 whole entry): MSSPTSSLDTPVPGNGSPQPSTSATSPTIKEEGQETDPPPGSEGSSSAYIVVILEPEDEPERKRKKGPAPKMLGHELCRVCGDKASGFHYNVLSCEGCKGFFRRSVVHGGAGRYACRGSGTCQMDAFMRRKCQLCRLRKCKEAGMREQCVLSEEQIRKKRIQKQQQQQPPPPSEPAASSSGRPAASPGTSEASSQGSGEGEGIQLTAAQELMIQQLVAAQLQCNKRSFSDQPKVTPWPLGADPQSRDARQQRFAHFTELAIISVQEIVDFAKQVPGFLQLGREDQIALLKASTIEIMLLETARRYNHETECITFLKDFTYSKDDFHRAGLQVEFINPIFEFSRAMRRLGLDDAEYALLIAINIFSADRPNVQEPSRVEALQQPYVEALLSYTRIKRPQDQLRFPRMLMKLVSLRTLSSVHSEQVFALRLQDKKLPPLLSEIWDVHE

[6] = molecular target: T6, Oxysterols receptor LXR-beta (Mus musculus) (UniProt Q60644); assay: Agonist activity at mouse LXRbeta expressed in HEK293 cells co-expressing CMX-beta-galactosidase incubated for 16 hrs by luciferase reporter gene assay relative to T0901317; type: cell-based
T6 sequence (whole entry): T5 sequence (Q60644 whole entry)

[7] = molecular target: T3, Oxysterols receptor LXR-beta (Homo sapiens); assay: Agonist activity at human LXRbeta expressed in HEK293 cells co-expressing CMX-beta-galactosidase incubated for 16 hrs at 30 uM by luciferase reporter gene assay relative to T0901317; type: cell-based
[8] = Aqueous solubility of the compound in EtOH: 1/15 M phosphate buffer at pH 7.4 1:1 by HPLC method; type: physicochemical
[9] = molecular target: T3, Oxysterols receptor LXR-beta (Homo sapiens); assay: Agonist activity at LXRbeta in human THP1 cells assessed as increase in ABCA1 mRNA expression at 1 uM by real-time quantitative RT-PCR method; type: cell-based
[10] = molecular target: T3, Oxysterols receptor LXR-beta (Homo sapiens); assay: Agonist activity at human LXRbeta expressed in HEK293 cells co-expressing CMX-beta-galactosidase at 30 uM incubated for 16 hrs by luciferase reporter gene assay; type: cell-based

Row | SMILES | Activity [1] | EC50 [2] | Efficacy [3] | Activity [4] | EC50 [5] | Efficacy [6] | Efficacy [7] | solubility [8] | Activity [9] | Activity [10]
1 | O=C1c2c(Cl)c(Cl)c(Cl)c(Cl)c2C(=O)N1c1ccccc1/C=C/c1nccs1 | inactive | 3.61 µM | 151% | inactive | 2.93 µM | 22% |  |  |  | 
2 | O=C1c2c(Cl)c(Cl)c(Cl)c(Cl)c2C(=O)N1c1ccccc1CCc1ccccc1 | inactive | 4.98 µM | 117% |  |  |  |  |  |  | 
3 | O=C1c2c(Cl)c(Cl)c(Cl)c(Cl)c2C(=O)N1c1ccccc1/C=C/c1ccco1 | inactive | 4.67 µM | 167% |  |  |  |  |  |  | 
4 | O=C1c2c(Cl)c(Cl)c(Cl)c(Cl)c2C(=O)N1c1ccccc1/C=C/c1cccnc1 | inactive | 4.96 µM | 141% |  |  |  |  |  |  | 
5 | O=C1c2c(Cl)c(Cl)c(Cl)c(Cl)c2C(=O)N1c1ccccc1Oc1ccccc1 | inactive | 8.98 µM | 99% | inactive |  |  |  |  |  | 
6 | O=C1c2c(Cl)c(Cl)c(Cl)c(Cl)c2C(=O)N1c1ccccc1Cc1ccccc1 | inactive | 8 µM | 109% | inactive |  |  |  |  |  | 
7 | O=C1c2c(Cl)c(Cl)c(Cl)c(Cl)c2C(=O)N1c1ccccc1/C=C/c1ccncc1 | inactive | > 10 µM |  |  |  |  | 35% |  |  | 
8 | O=C1c2c(Cl)c(Cl)c(Cl)c(Cl)c2C(=O)N1c1ccccc1/C=C/c1ccccc1 | inactive | 0.27 µM | 143% | inactive | 0.3 µM | 26% |  | 3.6 ng/mL (≈ 7.77 nM) | Active | 
9 | O=C1c2c(Cl)c(Cl)c(Cl)c(Cl)c2C(=O)N1c1ccccc1/C=C/c1ccsc1 | inactive | 0.915 µM | 133% | inactive | 0.82 µM | 23% |  |  |  | 
10 | O=C1c2c(Cl)c(Cl)c(Cl)c(Cl)c2C(=O)N1c1ccccc1-c1ccccc1 | inactive | 1.73 µM | 153% |  |  |  |  |  |  | 
11 | O=C1c2c(Cl)c(Cl)c(Cl)c(Cl)c2C(=O)N1c1ccccc1/C=C/c1ccccn1 | inactive | 4.77 µM | 148% |  |  |  |  |  |  | 
12 | O=C1c2c(Cl)c(Cl)c(Cl)c(Cl)c2C(=O)N1c1cccc2ccccc12 | inactive |  |  |  |  |  |  |  |  | inactive
13 | O=C1c2c(Cl)c(Cl)c(Cl)c(Cl)c2C(=O)N1c1ccccc1/C=C\c1ccccc1 | inactive | > 10 µM |  |  |  |  | 104% |  |  | 
